Experimental data: article PMC4833300, “Identification of Trypanocidal Activity for Known Clinical Compounds Using a New Trypanosoma cruzi Hit-Discovery Screening Cascade” (PLoS Neglected Tropical Diseases, 2016)
Read-outs that look alike come from different tables or passages of the source.

Tests used:
[1] = test system: intracellular T. cruzi amastigotes; assay: Primary high-content intracellular T. cruzi amastigote assay; assay type: cell-based, Trypanosoma cruzi (Silvio X10/7 A1) in Vero cells; settings: for EC50: Trypanosoma cruzi, read-out: pEC50 (cruzi) (converted)
Procedure: (§1) The compounds tested were obtained from the NIH (Clinical Collection) and from SelleckChem (FDA-approved drug library). Compounds were dispensed into black 384-well assay plates (Corning) by acoustic dispensing (LabCyte ECHO). […] Potencies are reported as pEC50 (-LOG(EC50[M])).
(§2) For the primary intracellular assay the infection conditions were chosen so that no trypomastigote egress occurs during the compound incubation time. First, Vero cells were infected overnight with tissue culture derived T. cruzi trypomastigotes in T225 tissue culture flasks (MOI 5). Next, any remaining free trypomastigotes were washed away with serum free MEM and the infected Vero cells were harvested by trypsinisation. The infected Vero cells were then plated into 384-well plates containing the compounds to be tested, at 4000 cells per well in MEM media with 1% FCS. […] The plates were imaged on a Perkin Elmer Operetta high-content imaging system using a 20x objective. Images were analysed using the Columbus system (Perkin Elmer). The algorithm for the primary assay first identified the Vero nuclei followed by demarcation of the cytoplasm and identification of intracellular amastigotes. This algorithm reported mean number of parasites per Vero cell and total number of Vero cells. Data analysis was as described in [22]. […] Hits from the primary screen were selected based on the following criteria: T. cruzi activity (percent inhibition) > (median T. cruzi percent inhibition + 3 x robust Standard Deviation) and Vero activity (percent inhibition) < (median percent Vero inhibition + 3 x robust Standard Deviation).

[2] = test system: Vero cells; assay: Host cell toxicity read-out of the primary assay (Vero cell count); assay type: cell-based; settings: for EC50: Chlorocebus sabaeus, Vero, read-out: pEC50 (Vero) (converted)
Procedure: as §1, §2

[3] = test system: intracellular T. cruzi; assay: Static-cidal assay (percent infected Vero cells, 96 h); assay type: cell-based, Trypanosoma cruzi (Silvio X10/7 A1) in Vero cells; settings: Trypanosoma cruzi, Vero; 96 h; 0% = starting level of infection, 100% = 50μM Nifurtimox at 96h; only from concentrations not toxic to the host cells; read-out: MAX PI (SC), Maximum Percent Inhibition in the static cidal assay
Procedure: The secondary static-cidal assay uses the same protocol as the standard assay with the following changes: infection is done at MOI 10, and infected Vero cells are incubated 88h at 37°C in presence of 5% CO2 prior to trypsinisation and plating. Four hours after plating a control plate (no compounds) was fixed with formaldehyde as described above. Compound containing plates were fixed after incubation for 96 hours. Compounds are run as ten point dose response curves in triplicate. The algorithm for the secondary assay was similar to the primary assay but reported percent infected Vero cells instead of the mean number of parasites.
To assess screening hits for their ability to be cytocidal rather than cytostatic or growth slowing we developed a medium throughput (400 compounds / batch) assay to predict cidality of compounds against intracellular T. cruzi. […] Instead we developed an algorithm that assesses whether a Vero cell is infected or not, and we used the percentage of infected cells as primary measurement for the static-cidal assay. In order to readily identify cidal compounds we normalised the raw data using the starting level of infection as 0% effect and the final level of infection in presence of 50μM Nifurtimox as 100% effect control.

[4] = hits of the bio-actives screen, 10-point dose-response, top concentration 50μM, 72h

Structure (SMILES): CCOC(=O)c1cncn1[C@H](C)c1ccccc1 [Etomidate]
- EC50 ([1]; 72 h): 5.01 µM
- EC50 ([2]; 72 h): 50.1 µM

Structure (SMILES): CCOC(=O)C1=C(C)NC(C)=C(C(=O)OC)C1c1cccc(Cl)c1Cl (centres unmarked) [Felodipine]
- EC50 [1, 4]: 5.01 µM
- EC50 [2, 4]: 15.8 µM

Structure (SMILES): C[C@]12CC[C@@H]3c4ccc(O)cc4C[C@@H](CCCCCCCCC[S+]([O-])CCCC(F)(F)C(F)(F)F)[C@H]3[C@@H]1CC[C@@H]2O (some centres unmarked) [Fulvestrant]
- EC50 [1, 4]: 5.01 µM
- EC50 [2, 4]: 15.8 µM

Structure (SMILES): C=CCc1ccc(O)c(-c2ccc(O)c(CC=C)c2)c1 [Honokiol]
- EC50 [1, 4]: 2 µM
- EC50 [2, 4]: 7.94 µM

Structure (SMILES): CNC1CC(c2ccc(Cl)c(Cl)c2)c2ccccc21 (centres unmarked) [Indatraline]
- EC50 ([1]; 72 h): 5.01 µM
- EC50 ([2]; 72 h): 12.6 µM

Structure (SMILES): COc1ccc(CN2CCN(C(c3ccc(F)cc3)c3ccc(F)cc3)CC2)c(OC)c1OC [Lomerizine]
- EC50 [1, 4]: 3.98 µM
- EC50 [2, 4]: 15.8 µM

Structure (SMILES): Cc1ccc(NC(=O)c2ccc(CN3CCN(C)CC3)cc2)cc1Nc1nc(-c2cccnc2)cs1 [Masitinib]
- EC50 [1, 4]: 2 µM
- EC50 [2, 4]: 7.94 µM

Structure (SMILES): Cc1cccc(CN2CCN(C(c3ccccc3)c3ccc(Cl)cc3)CC2)c1 (centres unmarked) [Meclizine]
- EC50 [1, 4]: 5.01 µM
- EC50 [2, 4]: 20 µM

Structure (SMILES): CCCCC/C=C\C/C=C\C/C=C\C/C=C\CCCC(=O)Nc1ccc(O)cc1 [N-arachidonoylaminophenol]
- pEC50 (cruzi) [1, 4]: 5.7
- pEC50 (Vero) [2, 4]: 4.8

Structure (SMILES): COCCOC(=O)C1=C(C)NC(C)=C(C(=O)OC(C)C)C1c1cccc([N+](=O)[O-])c1 (centres unmarked) [Nimodipine]
- EC50 [1, 4]: 2 µM
- EC50 [2, 4]: 15.8 µM

Structure (SMILES): CCOC(=O)C1=C(C)NC(C)=C(C(=O)OC)C1c1cccc([N+](=O)[O-])c1 (centres unmarked) [Nitrendipine]
- EC50 [1, 4]: 3.98 µM
- EC50 [2, 4]: 15.8 µM

Structure (SMILES): NC(=O)N/N=C/c1ccc([N+](=O)[O-])o1 [Nitrofurazone]
- EC50 [1, 4]: 1 µM
- EC50 [2, 4]: 15.8 µM

Structure (SMILES): Fc1ccc([C@@H]2CCNC[C@H]2COc2ccc3c(c2)OCO3)cc1 [Paroxetine]
- EC50 [1, 4]: 5.01 µM
- EC50 [2, 4]: 12.6 µM

Structure (SMILES): O=C1[C@H]2CCCC[C@H]2C(=O)N1CCCCN1CCN(c2nsc3ccccc23)CC1 [Perospirone]
- EC50 [1, 4]: 6.31 µM
- EC50 [2, 4]: 15.8 µM

Structure (SMILES): c1ccc2c(c1)Nc1ccccc1S2 [Phenothiazine]
- EC50 ([1]; 72 h): 2.51 µM
- EC50 ([2]; 72 h): 15.8 µM

Structure (SMILES): COC(=O)[C@H]1[C@H]2C[C@@H]3c4[nH]c5cc(OC)ccc5c4CCN3C[C@H]2C[C@@H](OC(=O)c2cc(OC)c(OC)c(OC)c2)[C@@H]1OC [Reserpine]
- EC50 [1, 4]: 3.98 µM
- EC50 [2, 4]: 50.1 µM

Structure (SMILES): CO[C@H]1/C=C/O[C@@]2(C)Oc3c(C)c(O)c4c(O)c(c(/C=N/N5CCN(C6CCCC6)CC5)c(O)c4c3C2=O)NC(=O)/C(C)=C\C=C\[C@H](C)[C@H](O)[C@@H](C)[C@@H](O)[C@@H](C)[C@H](OC(C)=O)[C@@H]1C [Rifapentine]
- EC50 [1, 4]: 10 µM
- EC50 [2, 4]: 15.8 µM

Structure (SMILES): C[C@@H]1CN(CCCn2c3ccccc3c3ccccc32)C[C@H](C)N1 [Rimcazole]
- EC50 [1, 4]: 5.01 µM
- EC50 [2, 4]: 10 µM

Structure (SMILES): C=C(C)CN1CC[C@]23c4c5ccc(O)c4O[C@H]2c2[nH]c4ccccc4c2C[C@@]3(O)C1C5.Cl.O [SDM25N]
- pEC50 (cruzi) [1, 4]: 5.2
- pEC50 (Vero) [2, 4]: 4.8

Structure (SMILES): C[C@]12Cc3c[nH]nc3C[C@@H]1CC[C@@H]1[C@@H]2CC[C@@]2(C)[C@H]1CC[C@]2(C)O [Stanozolol]
- EC50 ([1]; 72 h): 5.01 µM
- EC50 ([2]; 72 h): 15.8 µM

Structure (SMILES): CN1CCN(CC/C=C2/c3ccccc3Sc3ccc(S(=O)(=O)N(C)C)cc32)CC1 [Thiothixene]
- EC50 [1, 4]: 5.01 µM
- EC50 [2, 4]: 7.94 µM

Structure (SMILES): Oc1cc(Cl)ccc1Oc1ccc(Cl)cc1Cl [Triclosan]
- EC50 ([1]; 72 h): 7.94 µM
- EC50 ([2]; 72 h): 10 µM

Structure (SMILES): C[C@@H](c1ncncc1F)[C@](O)(Cn1cncn1)c1ccc(F)cc1F [Voriconazole]
- EC50 [1, 4]: 0.0251 µM
- EC50 [2, 4]: 50.1 µM
- Emax [3]: 70%
